Columns and labels:
[1] = target: T1, Sestrin2/GATOR2 interaction (Homo sapiens, UniProt P58004); experiment: Intact cells-based Sestrin2/GATOR2 protein-protein interaction assay, Flag-WDR24 293T cells; type: cell-based; details: 10 minutes
T1 construct: endogenous in cells; host or cells: Flag-WDR24 293T (HEK293T) cells
T1 sequence (P58004 1-480): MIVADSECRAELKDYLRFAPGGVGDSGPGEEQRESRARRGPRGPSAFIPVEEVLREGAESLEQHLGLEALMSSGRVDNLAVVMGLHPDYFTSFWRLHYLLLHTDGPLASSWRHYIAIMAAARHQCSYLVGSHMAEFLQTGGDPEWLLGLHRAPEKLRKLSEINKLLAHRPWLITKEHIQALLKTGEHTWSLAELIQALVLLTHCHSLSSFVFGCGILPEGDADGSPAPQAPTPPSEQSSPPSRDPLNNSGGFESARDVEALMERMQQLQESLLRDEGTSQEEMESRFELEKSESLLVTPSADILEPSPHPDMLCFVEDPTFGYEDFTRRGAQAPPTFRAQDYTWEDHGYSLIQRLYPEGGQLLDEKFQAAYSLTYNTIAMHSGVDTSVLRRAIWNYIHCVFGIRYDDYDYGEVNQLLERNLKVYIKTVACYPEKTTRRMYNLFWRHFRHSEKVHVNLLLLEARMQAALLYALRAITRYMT
Description: Flag-WDR24 293T cells were washed and placed in leucine-free DMEM supplemented 10% dFBS for 50 minutes followed by treatment with NV-5297, leucine or vehicle for 10 minutes. Cells were rinsed once with ice-cold PBS and immediately lysed with Triton lysis buffer (1% Triton, 10 mM β-glycerol phosphate, 10 mM pyrophosphate, 40 mM Hepes pH 7.4, 2.5 mM MgCl2 and 1 tablet of EDTA-free protease inhibitor). The cell lysates were cleared by centrifugation at 13,200 rpm at 4°C in a microcentrifuge for 10 minutes. Prior to immunoprecipitations, an aliquot of lysate was taken for SDS-PAGE and immunoblotting for pS6K1, S6K1 and tubulin. For anti-FLAG immunoprecipitations, the FLAG-M2 affinity gel was washed 3 times with Triton lysis buffer, and 30 μl of a 50/50 slurry of the FLAG-M2 affinity gel was then added to approximately 2 mg of clarified cell lysates and incubated with rotation for 3 hours at 4°C. Following immunoprecipitation, the beads were washed one time with Triton wash buffer containing 500 mM NaCl. Immunoprecipitated proteins were denatured, resolved by SDS-PAGE, and analyzed by immunoblotting.
Next, Sestrin2/GATOR2 protein-protein interactions in response to NV-5297 were measured using cell-free assays and in vitro. For this, HEK293T cells stably expressing flag-WDR24, a component of GATOR2 [44], were used. The cell-free assays utilized Sestrin2/GATOR2 complexes immunoprecipitated from amino acid-starved cells with an anti-flag antibody.

[2] = tested on: N171-82Q HD mice; experiment: Chronic 6-week treatment: striatal volume and MSN area (DARPP-32 histology); type: in vivo; details: N171-82Q mice, 160 mg/kg daily 6 weeks
Description: Mice were perfused with PBS, and tissues were fixed in 4% paraformaldehyde for at least 48 hours. Brains were cryoprotected in a 30% sucrose solution for 24 hours and cryosectioned to 40 μm on a Leica SM2010R microtome. Each section through the striatum was collected and floated out in 30% ethylene glycol/15% sucrose solution sequentially in a 12-well plate. Once sections had been placed in each well, deeper sequential sections were added to wells in the same order, leading to each well containing 7 sections, 480 μm apart. Hearts were bisected transversely, and the apical halves were processed and embedded in paraffin. Heart tissue was sectioned to 5 μm on a Microm HM 355S (Thermo) microtome. […]
Striatal volume were estimated by the Cavalieri method on low-power digital images of DARPP-32-stained sections in ImageJ. A 5000 μm^2 area-per-point grid was superimposed randomly over the image, and number of points overlapping the striatum in each section (5 per animal) was counted. The volume was then calculated using the formula V = ∑p∙t∙A(p), where V = estimated volume, p = points per section, t = space between sections, and A(p) = area-per-point. […]
Average MSN area was calculated from high-power digital images of DARPP-32-stained sections in ImageJ. […] At least 700 cells were measured per brain, and the average MSN area was determined per treatment group.

CC(C)(C[C@H](N)C(=O)O)C(F)(F)F [NV-5297, (S)-2-amino-5,5,5-trifluoro-4,4-dimethylpentanoic acid]
Sestrin2/GATOR2 interaction (GATOR2-associated Sestrin2) ([1]; added to cell cultures, leucine-starved flag-WDR24 HEK293T cells): disrupted the Sestrin2/GATOR2 interaction in a dose-dependent manner | p70S6K1 (T389 pS6K1) level ([1]; leucine-starved flag-WDR24 HEK-293T cells, S1C Fig): increased p70S6K1 in a dose-dependent manner | medium spiny neuron area [2]: no change | striatal volume relative to vehicle [2]: significant increases
